Results: US20240124485A1, “SUBSTITUTED AMIDE MACROCYCLIC COMPOUNDS WITH OREXIN-2 RECEPTOR AGONIST ACTIVITY” (Alkermes, Inc., priority 2021, published 2024)

Molecular target: T1, human orexin-2 receptor (OX2R) (Homo sapiens, UniProt O43614)
T1 construct: expressed in transfected cells
T1 sequence (O43614 1-444): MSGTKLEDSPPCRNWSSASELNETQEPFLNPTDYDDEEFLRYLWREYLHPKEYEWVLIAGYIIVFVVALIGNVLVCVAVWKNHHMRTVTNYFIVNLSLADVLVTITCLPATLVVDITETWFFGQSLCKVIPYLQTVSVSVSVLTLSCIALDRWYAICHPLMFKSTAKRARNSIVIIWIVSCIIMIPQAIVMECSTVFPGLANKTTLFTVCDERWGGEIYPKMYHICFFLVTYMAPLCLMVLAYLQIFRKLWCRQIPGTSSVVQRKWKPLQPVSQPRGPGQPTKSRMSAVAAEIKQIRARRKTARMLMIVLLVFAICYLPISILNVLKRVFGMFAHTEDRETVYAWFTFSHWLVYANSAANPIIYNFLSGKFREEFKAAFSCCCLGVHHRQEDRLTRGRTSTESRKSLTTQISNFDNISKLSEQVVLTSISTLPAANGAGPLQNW
Assay: Human OX2R IP1 assay
Assay type: cell-based
Details: T-Rex CHO cells stably overexpressing the human orexin-2 receptor; IP1 accumulation, 1 hr at 37 degrees C
Method: T-Rex CHO cells stably overexpressing the human orexin-2 receptor (OX2R) were induced overnight with 1 μg/mL of doxycycline in a T225 flask. 24 hours post induction, cells were lifted with accutase and plated into a 384-well proxy plate at 30,000 cells/well. Cells were then treated with different test compounds in 1× stimulation buffer containing 10 mM Hepes, 1 mM CaCl2), 0.5 mM MgCl2, 4.2 mM KCl, 146 mM NaCl, 5.5 mM glucose, and 50 mM LiCl, pH 7.4, for 1 hr at 37 degrees C. Following incubation, the reaction was terminated by the addition of detection mix, which is composed of IP1-d2 and anti-IP1-cryptate diluted in lysis buffer as well as 1× stimulation buffer. The plates were allowed to incubate for 1 hour at room temperature and were then read in the ENVISION® multimode plate reader, measuring inositol phosphate levels.
Cisbio IP1 is a cell-based functional assay quantifying the accumulation of inositol monophosphate (IP), a metabolite released as a result of orexin 2 receptor activation through the phospholipase C-Gq signaling pathway. This is a competitive immunoassay in which the IP1 produced by the cells upon receptor activation competes with the IP1 analog coupled to the d2 fluorophore (acceptor) for binding to an anti-IP1 monoclonal antibody labeled with Eucryptate (donor). The measured HTRF-FRET based signal is inversely proportional to the IP1 concentration produced.
The EC50 values reported in Table 2 were obtained according to the human OX2R IP1 assay described above. Data are the mean EC50 values ±S.E.M.

## O=C(N[C@H]1CCCN2C(=O)COc3ccccc3C3CCC(CC3)OC[C@@H]12)C1COCCO1 (stereo in doubt) [Compound 1]
  EC50: < 0.1 µM

## O=C(N[C@H]1CCCN2C(=O)COc3ccccc3C3CCC(CC3)OC[C@@H]12)C1CCCCO1 (stereo in doubt) [Compound 2]
  EC50: < 0.1 µM

## COCC(=O)N[C@H]1CCCN2C(=O)COc3ccccc3[C@H]3CC[C@H](CC3)OC[C@@H]12 (stereo in doubt) [Compound 3]
  EC50: < 0.1 µM

## O=C(N[C@H]1CCCN2C(=O)COc3ccccc3C3CCC(CC3)OC[C@@H]12)C1CCCOC1 (stereo in doubt) [Compound 4]
  EC50: 0.1 to 1 µM

## O=C(N[C@H]1CCCN2C(=O)COc3ccccc3C3CCC(CC3)OC[C@@H]12)C1CCOC1 (stereo in doubt) [Compound 5]
  EC50: 0.1 to 1 µM

## O=C(N[C@H]1CCCN2C(=O)COc3ccccc3C3CCC(CC3)OC[C@@H]12)C1CCOC1 (stereo in doubt) [Compound 6]
  EC50: 0.1 to 1 µM

## O=C(N[C@H]1CCCN2C(=O)COc3ccccc3C3CCC(CC3)OC[C@@H]12)C1COCCO1 (stereo in doubt) [Compound 8]
  EC50: 0.1 to 1 µM

## O=C(N[C@H]1CCCN2C(=O)COc3ccccc3C3CCC(CC3)OC[C@@H]12)C1CCO1 (stereo in doubt) [Compound 9]
  EC50: 0.1 to 1 µM

## O=C(N[C@H]1CCCN2C(=O)COc3ccccc3C3CCC(CC3)OC[C@@H]12)C1CCCO1 (stereo in doubt) [Compound 10]
  EC50: < 0.1 µM

## O=C(N[C@H]1CCCN2C(=O)COc3ccccc3C3CCC(CC3)OC[C@@H]12)C1CCCOC1 (stereo in doubt) [Compound 11]
  EC50: 0.1 to 1 µM

## O=C(N[C@H]1CCCN2C(=O)COc3ccccc3C3CCC(CC3)OC[C@@H]12)C1CCO1 (stereo in doubt) [Compound 12]
  EC50: < 0.1 µM

## Cc1ccnc2c1C1CCC(CC1)OC[C@H]1[C@@H](NC(=O)C3CCCO3)CCCN1C(=O)CO2 (stereo in doubt) [Compound 13]
  EC50: < 0.1 µM

## Cc1cccc2c1C1CCC(CC1)OC[C@H]1[C@@H](NC(=O)C3CCCO3)CCCN1C(=O)CO2 (stereo in doubt) [Compound 14]
  EC50: < 0.1 µM

## CN(C)C(=O)C(=O)N[C@H]1CCCN2C(=O)COc3ccccc3[C@H]3CC[C@H](CC3)OC[C@@H]12 [Compound 7]
  EC50: < 0.1 µM

## Cc1cccc2c1C1CCC(CC1)OCC1[C@@H](NC(=O)C3CCCO3)CCCN1C(=O)CO2 (some centres unmarked) [Compound 15]
  EC50: < 0.1 µM

## O=C(N[C@H]1CCCN2C(=O)COc3ccccc3[C@H]3CC[C@H](CC3)OC[C@@H]12)C1COC1 [Compound 16]
  EC50: < 0.1 µM

## Cc1ccnc2c1C1CCC(CC1)OCC1[C@@H](NC(=O)C3CCCO3)CCCN1C(=O)CO2 (some centres unmarked) [Compound 17]
  EC50: < 0.1 µM

## O=C(N[C@H]1CCCN2C(=O)COc3ccccc3[C@H]3CC[C@H](CC3)OC[C@@H]12)c1ncco1 [Compound 18]
  EC50: > 1 µM

## CN1CCC1C(=O)N[C@H]1CCCN2C(=O)COc3ccccc3C3CCC(CC3)OCC12 (some centres unmarked) [Compound 19]
  EC50: > 1 µM

## O=C(N[C@H]1CCCN2C(=O)COc3ccccc3C3CCC(CC3)OCC12)C1CCCCO1 (some centres unmarked) [Compound 20]
  EC50: > 1 µM

## CN1CCOC(C(=O)N[C@H]2CCCN3C(=O)COc4ccccc4C4CCC(CC4)OCC23)C1 (some centres unmarked) [Compound 21]
  EC50: > 1 µM

## CN1CCCC1C(=O)N[C@H]1CCCN2C(=O)COc3ccccc3C3CCC(CC3)OCC12 (some centres unmarked) [Compound 22]
  EC50: > 1 µM

## CN1CCC1C(=O)N[C@H]1CCCN2C(=O)COc3ccccc3C3CCC(CC3)OCC12 (some centres unmarked) [Compound 23]
  EC50: > 1 µM

## CN1CCCC1C(=O)N[C@H]1CCCN2C(=O)COc3ccccc3C3CCC(CC3)OCC12 (some centres unmarked) [Compound 24]
  EC50: > 1 µM

## CN1CCOC(C(=O)N[C@H]2CCCN3C(=O)COc4ccccc4C4CCC(CC4)OCC23)C1 (some centres unmarked) [Compound 25]
  EC50: > 1 µM

## COC1(C(=O)N[C@H]2CCCN3C(=O)COc4ccccc4[C@H]4CC[C@H](CC4)OC[C@@H]23)CC1 [Compound 89]
  EC50: > 1 µM
